Measured values from patent publication US20240092784A1, “CONDENSED HETEROCYCLIC COMPOUND” (NISSAN CHEMICAL CORPORATION, priority 2020, published 2024).

Target: human SPR (Homo sapiens (Human), UniProt P35270)
Assay: Evaluation Example 2: Measurement of human SPR inhibitory activity (seven concentrations, sepiapterin absorbance at 420 nm)
Assay type: biochemical
Settings: Evaluation Example 2, seven concentrations 0.14 nM to 100 nM, 240 minutes at room temperature, read-out: IC50
Procedure, shortened: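 Reactions ran 240 min at room temperature in 100 mM Tris-HCl pH 7.5 with 0.01% BSA. They contained tag-cleaved, E. coli-expressed full-length human SPR (diluted to 150 ng/mL), seven compound concentrations from 0.14 to 100 nM, and sepiapterin/NADPH added as a 120 μM/160 μM solution. Inhibition was calculated from sepiapterin absorbance at 420 nm.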

human SPR, sequence (P35270 whole entry): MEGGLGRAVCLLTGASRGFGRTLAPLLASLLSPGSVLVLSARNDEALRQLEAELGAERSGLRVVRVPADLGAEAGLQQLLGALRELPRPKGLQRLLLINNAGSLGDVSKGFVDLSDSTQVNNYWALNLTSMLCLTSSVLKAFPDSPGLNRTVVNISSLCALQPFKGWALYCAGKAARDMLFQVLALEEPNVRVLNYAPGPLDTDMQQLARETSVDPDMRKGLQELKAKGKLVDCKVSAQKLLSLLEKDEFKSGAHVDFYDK

Question: For `CC(C)Cn1c(=O)c(C(=O)NC2CC2)c(O)n2ncc(/C=C/C(=O)N3[C@@H](C)COC[C@@H]3C)c12` [compound 457, N-Cyclopropyl-3-((E)-3-((3S,5S)-3,5-dimethylmorpholino)-3-oxoprop-1-en-1-yl)-7-hydroxy-4-isobutyl-5-oxo-4,5-dihydropyrazolo[1,5-a]pyrimidine-6-carboxamide], which IC50 is on record?
Answer: 0.81 nM

Question: How did the IC50 turn out when `CC(C)Cn1c(=O)c(C(=O)NC2CC2)c(O)n2ncc(/C=C/C(=O)N3CCC[C@@H]3C)c12` [compound 458, (S,E)-N-Cyclopropyl-7-hydroxy-4-isobutyl-3-(3-(2-methylpyrrolidin-1-yl)-3-oxoprop-1-en-1-yl)-5-oxo-4,5-dihydropyrazolo[1,5-a]pyrimidine-6-carboxamide] was run?
Answer: 0.79 nM

Question: How did the IC50 turn out when `CC(C)Cn1c(=O)c(C(=O)NC2CC2)c(O)n2ncc(/C=C/C(=O)N3CCOCC3(C)C)c12` [compound 459, (E)-N-Cyclopropyl-3-(3-(3,3-dimethylmorpholino)-3-oxoprop-1-en-1-yl)-7-hydroxy-4-isobutyl-5-oxo-4,5-dihydropyrazolo[1,5-a]pyrimidine-6-carboxamide] was run?
Answer: 0.74 nM

Question: `CC(C)Cn1c(=O)c(C(=O)NC2CC2)c(O)n2ncc(/C=C/C(=O)N3CCN(C4CC(F)(F)C4)CC3)c12` [compound 460, (E)-N-Cyclopropyl-3-(3-(4-(3,3-difluorocyclobutyl)piperazin-1-yl)-3-oxoprop-1-en-1-yl)-7-hydroxy-4-isobutyl-5-oxo-4,5-dihydropyrazolo[1,5-a]pyrimidine-6-carboxamide] was tested. Which IC50 did it give?
Answer: 1.24 nM

Question: How did the IC50 turn out when `CC(C)Cn1c(=O)c(C(=O)NC2CC2)c(O)n2ncc(/C=C/C(=O)N3CCCOCC3)c12` [compound 461, (E)-3-(3-(1,4-Oxazepan-4-yl)-3-oxoprop-1-en-1-yl)-N-cyclopropyl-7-hydroxy-4-isobutyl-5-oxo-4,5-dihydropyrazolo[1,5-a]pyrimidine-6-carboxamide] was run?
Answer: 0.75 nM

Question: For `CC(C)Cn1c(=O)c(C(=O)NC2CC2)c(O)n2ncc(/C=C/C(=O)N3CCN(C(C)C)CC3)c12` [compound 462, (E)-N-Cyclopropyl-7-hydroxy-4-isobutyl-3-(3-(4-isopropylpiperazin-1-yl)-3-oxoprop-1-en-1-yl)-5-oxo-4,5-dihydropyrazolo[1,5-a]pyrimidine-6-carboxamide], which IC50 is on record?
Answer: 0.96 nM

Question: For `CC(C)Cn1c(=O)c(C(=O)NC2CC2)c(O)n2ncc(/C=C/C(=O)N3CCC(F)CC3)c12` [compound 463, (E)-N-Cyclopropyl-3-(3-(4-fluoropiperidin-1-yl)-3-oxoprop-1-en-1-yl)-7-hydroxy-4-isobutyl-5-oxo-4,5-dihydropyrazolo[1,5-a]pyrimidine-6-carboxamide], which IC50 is on record?
Answer: 0.97 nM

Question: Which IC50 does the source give for `CC(C)Cn1c(=O)c(C(=O)NC2CC2)c(O)n2ncc(/C=C/C(=O)N3CCC(F)(F)CC3)c12` [compound 464, (E)-N-Cyclopropyl-3-(3-(4,4-difluoropiperidin-1-yl)-3-oxoprop-1-en-1-yl)-7-hydroxy-4-isobutyl-5-oxo-4,5-dihydropyrazolo[1,5-a]pyrimidine-6-carboxamide] here?
Answer: 0.8 nM

Question: How did the IC50 turn out when `CC(C)Cn1c(=O)c(C(=O)NC2CC2)c(O)n2ncc(/C=C/C(=O)N3CCC(OC(F)(F)F)CC3)c12` [compound 465, (E)-N-Cyclopropyl-7-hydroxy-4-isobutyl-5-oxo-3-(3-oxo-3-(4-(trifluoromethoxy)piperidin-1-yl)prop-1-en-1-yl)-4,5-dihydropyrazolo[1,5-a]pyrimidine-6-carboxamide] was run?
Answer: 1.76 nM

Question: Which IC50 does the source give for `CC(C)Cn1c(=O)c(C(=O)NC2CC2)c(O)n2ncc(/C=C/C(=O)N3CCC(C(F)F)CC3)c12` [compound 466, (E)-N-Cyclopropyl-3-(3-(4-(difluoromethyl)piperidin-1-yl)-3-oxoprop-1-en-1-yl)-7-hydroxy-4-isobutyl-5-oxo-4,5-dihydropyrazolo[1,5-a]pyrimidine-6-carboxamide] here?
Answer: 1.27 nM

Question: `CC(C)Cn1c(=O)c(C(=O)NC2CC2)c(O)n2ncc(/C=C/C(=O)N3CCC(C)(O)CC3)c12` [compound 467, (E)-N-Cyclopropyl-7-hydroxy-3-(3-(4-hydroxy-4-methylpiperidin-1-yl)-3-oxoprop-1-en-1-yl)-4-isobutyl-5-oxo-4,5-dihydropyrazolo[1,5-a]pyrimidine-6-carboxamide] was tested. Which IC50 did it give?
Answer: 0.79 nM

Question: With `CC(C)Cn1c(=O)c(C(=O)NC2CC2)c(O)n2ncc(/C=C/C(=O)N3CCC(C#N)CC3)c12` [compound 468] as the compound, how does the IC50 read?
Answer: 0.84 nM

Question: For `CC(C)Cn1c(=O)c(C(=O)NC2CC2)c(O)n2ncc(/C=C/C(=O)N3CCC(C(C)(F)F)CC3)c12` [compound 469], which IC50 is on record?
Answer: 0.89 nM

Question: Which IC50 does the source give for `COC1(C)CCN(C(=O)/C=C/c2cnn3c(O)c(C(=O)NC4CC4)c(=O)n(CC(C)C)c23)CC1` [compound 470] here?
Answer: 0.88 nM

Question: Which IC50 does the source give for `CC(C)Cn1c(=O)c(C(=O)NC2CC2)c(O)n2ncc(/C=C/C(=O)N3CCN(C4CC4)CC3)c12` [compound 471, (E)-N-Cyclopropyl-3-(3-(4-cyclopropylpiperazin-1-yl)-3-oxoprop-1-en-1-yl)-7-hydroxy-4-isobutyl-5-oxo-4,5-dihydropyrazolo[1,5-a]pyrimidine-6-carboxamide] here?
Answer: 1.18 nM

Question: With `CC(C)Cn1c(=O)c(C(=O)NC2CC2)c(O)n2ncc(/C=C/C(=O)N3CCN(C4CCC4)CC3)c12` [compound 472, (E)-3-(3-(4-Cyclobutylpiperazin-1-yl)-3-oxoprop-1-en-1-yl)-N-cyclopropyl-7-hydroxy-4-isobutyl-5-oxo-4,5-dihydropyrazolo[1,5-a]pyrimidine-6-carboxamide] as the compound, how does the IC50 read?
Answer: 1.12 nM

Question: Which IC50 does the source give for `CC(C)Cn1c(=O)c(C(=O)NC2CC2)c(O)n2ncc(/C=C/C(=O)N3CCC(C(C)C)CC3)c12` [compound 473, (E)-N-Cyclopropyl-7-hydroxy-4-isobutyl-3-(3-(4-isopropylpiperidin-1-yl)-3-oxoprop-1-en-1-yl)-5-oxo-4,5-dihydropyrazolo[1,5-a]pyrimidine-6-carboxamide] here?
Answer: 2.11 nM

Question: Which IC50 does the source give for `CC(C)Cn1c(=O)c(C(=O)NC2CC2)c(O)n2ncc(/C=C/C(=O)N3CCC(C(C)(C)O)CC3)c12` [compound 474, (E)-N-Cyclopropyl-7-hydroxy-3-(3-(4-(2-hydroxypropan-2-yl)piperidin-1-yl)-3-oxoprop-1-en-1-yl)-4-isobutyl-5-oxo-4,5-dihydropyrazolo[1,5-a]pyrimidine-6-carboxamide] here?
Answer: 0.88 nM

Question: `COCC1CCN(C(=O)/C=C/c2cnn3c(O)c(C(=O)NC4CC4)c(=O)n(CC(C)C)c23)CC1` [compound 475, (E)-N-Cyclopropyl-7-hydroxy-4-isobutyl-3-(3-(4-(methoxymethyl)piperidin-1-yl)-3-oxoprop-1-en-1-yl)-5-oxo-4,5-dihydropyrazolo[1,5-a]pyrimidine-6-carboxamide] was tested. Which IC50 did it give?
Answer: 0.85 nM

Question: `CC(C)Cn1c(=O)c(C(=O)NC2CC2)c(O)n2ncc(/C=C/C(=O)N3CCC(O)CC3)c12` [compound 476, (E)-N-Cyclopropyl-7-hydroxy-3-(3-(4-hydroxypiperidin-1-yl)-3-oxoprop-1-en-1-yl)-4-isobutyl-5-oxo-4,5-dihydropyrazolo[1,5-a]pyrimidine-6-carboxamide] was tested. Which IC50 did it give?
Answer: 0.75 nM

Question: Which IC50 does the source give for `CC(C)Cn1c(=O)c(C(=O)NC2CC2)c(O)n2ncc(/C=C/C(=O)N3CCC(C(N)=O)CC3)c12` [compound 477, (E)-3-(3-(4-Carbamoylpiperidin-1-yl)-3-oxoprop-1-en-1-yl)-N-cyclopropyl-7-hydroxy-4-isobutyl-5-oxo-4,5-dihydropyrazolo[1,5-a]pyrimidine-6-carboxamide] here?
Answer: 0.64 nM
